Data set [1] concerns RCSN-3 cells.
Data set [2] has as its target receptors for α-bungarotoxin (Homo sapiens, UniProt P02708+P07510+Q07001). The format is binding.
The next data set concerns RCSN cells. Kind of data set: intracellular Ca2+ imaging in Fluo-3 loaded RCSN cells. The format is cell-based, rat. Conditions: differentiated cells, 200 μM glutamate applied externally.
The test system of data set [3] is RCSN-3 cells. Nature of the data set: melanin fluorescence in RCSN-3 cells preincubated with L-Dopa. Format: cell-based, rat. Conditions: for melanin, mean: L-DOPA, n 3 (ANOVA summary); for melanin, Average: L-DOPA (+), 100 microM, 24 hrs. As for the experimental part:
RCSN-3 cells were preincubated for 24 hrs in the presence of 100 microM L-Dopa. Cells were lysed with a hypotonic buffer. […] Oxidation of melanin in vitro degraded the melanin polymer, resulting in a fluorescent solution. Fluorescence spectroscopy gave an excitation maximum at approximately 470 nm and an emission maximum at approximately 540 nm for both natural and synthetic melanin. Increasing the time of exposure to light or hydrogen peroxide increased melanin fluorescence (Kayatz, P et al., Invest Ophthalmol Vis Sci, January 2001,42(1):241–6).

The test system of data set [4] is RCSN-3 cells. This is another data set of the same source.
Another data set deals with RCVC cells. Nature of the data set: 45Ca2+ influx in RCVC cells. The format is cell-based, rat. Conditions: normally polarized cells.
Data set [5] deals with MAO B activity in RCSN-3 cell lysates. Kind of data set: MPP+ production by RCSN-3 cell lysates incubated with MPTP (HPLC). The format is biochemical, rat. As for the experimental part: To verify if RCSN-3 cells can produce MPP^+ from MPTP, lisates of RCSN-3 cells (differentiated and non-differentiated) were incubated with MPTP. Differentiation was induced by culturing in F10 media+2% adult bovine serum for one week. Non-differentiated conditions were attained with F10 media+10% adult bovine serum and 2.5% fetal bovine serum. Lisate buffer was PBS with 50 μM PMSF and a protease inhibiting cocktail (leupeptin, pepstatine, chemostatin). Samples were incubated with MPTP and MPP^+ for 15 min. at 37° C. HPLC studies were carried out in a SHIMADZU HPLC with […], reading at 245 nm. Results are shown in FIGS. 16A–C, FIGS. 17A–D, and FIGS. 18A–C.

Data set [6] concerns the target single class of receptors for [3H]en-TTX. Format: binding, rat.
The target of data set [7] is microsomal fraction from RCVC cells (Rattus norvegicus, UniProt P22002). Kind of data set: 3H-nitrendipine binding to microsomal fraction of RCVC cells. Conditions: read-out: equilibrium dissociation constant.
Another data set relates to UCHCC1 cells. The format is cell-based, rat. Conditions: read-out: half-maximal inhibitory concentration.
The target in data set [8] is T1, receptors for dihydropyridines (Homo sapiens, UniProt Q13698).
T1 construct: endogenous in cells; host or cells: RCMH (immortalized human skeletal muscle cell line)
T1 sequence (Q13698 whole entry): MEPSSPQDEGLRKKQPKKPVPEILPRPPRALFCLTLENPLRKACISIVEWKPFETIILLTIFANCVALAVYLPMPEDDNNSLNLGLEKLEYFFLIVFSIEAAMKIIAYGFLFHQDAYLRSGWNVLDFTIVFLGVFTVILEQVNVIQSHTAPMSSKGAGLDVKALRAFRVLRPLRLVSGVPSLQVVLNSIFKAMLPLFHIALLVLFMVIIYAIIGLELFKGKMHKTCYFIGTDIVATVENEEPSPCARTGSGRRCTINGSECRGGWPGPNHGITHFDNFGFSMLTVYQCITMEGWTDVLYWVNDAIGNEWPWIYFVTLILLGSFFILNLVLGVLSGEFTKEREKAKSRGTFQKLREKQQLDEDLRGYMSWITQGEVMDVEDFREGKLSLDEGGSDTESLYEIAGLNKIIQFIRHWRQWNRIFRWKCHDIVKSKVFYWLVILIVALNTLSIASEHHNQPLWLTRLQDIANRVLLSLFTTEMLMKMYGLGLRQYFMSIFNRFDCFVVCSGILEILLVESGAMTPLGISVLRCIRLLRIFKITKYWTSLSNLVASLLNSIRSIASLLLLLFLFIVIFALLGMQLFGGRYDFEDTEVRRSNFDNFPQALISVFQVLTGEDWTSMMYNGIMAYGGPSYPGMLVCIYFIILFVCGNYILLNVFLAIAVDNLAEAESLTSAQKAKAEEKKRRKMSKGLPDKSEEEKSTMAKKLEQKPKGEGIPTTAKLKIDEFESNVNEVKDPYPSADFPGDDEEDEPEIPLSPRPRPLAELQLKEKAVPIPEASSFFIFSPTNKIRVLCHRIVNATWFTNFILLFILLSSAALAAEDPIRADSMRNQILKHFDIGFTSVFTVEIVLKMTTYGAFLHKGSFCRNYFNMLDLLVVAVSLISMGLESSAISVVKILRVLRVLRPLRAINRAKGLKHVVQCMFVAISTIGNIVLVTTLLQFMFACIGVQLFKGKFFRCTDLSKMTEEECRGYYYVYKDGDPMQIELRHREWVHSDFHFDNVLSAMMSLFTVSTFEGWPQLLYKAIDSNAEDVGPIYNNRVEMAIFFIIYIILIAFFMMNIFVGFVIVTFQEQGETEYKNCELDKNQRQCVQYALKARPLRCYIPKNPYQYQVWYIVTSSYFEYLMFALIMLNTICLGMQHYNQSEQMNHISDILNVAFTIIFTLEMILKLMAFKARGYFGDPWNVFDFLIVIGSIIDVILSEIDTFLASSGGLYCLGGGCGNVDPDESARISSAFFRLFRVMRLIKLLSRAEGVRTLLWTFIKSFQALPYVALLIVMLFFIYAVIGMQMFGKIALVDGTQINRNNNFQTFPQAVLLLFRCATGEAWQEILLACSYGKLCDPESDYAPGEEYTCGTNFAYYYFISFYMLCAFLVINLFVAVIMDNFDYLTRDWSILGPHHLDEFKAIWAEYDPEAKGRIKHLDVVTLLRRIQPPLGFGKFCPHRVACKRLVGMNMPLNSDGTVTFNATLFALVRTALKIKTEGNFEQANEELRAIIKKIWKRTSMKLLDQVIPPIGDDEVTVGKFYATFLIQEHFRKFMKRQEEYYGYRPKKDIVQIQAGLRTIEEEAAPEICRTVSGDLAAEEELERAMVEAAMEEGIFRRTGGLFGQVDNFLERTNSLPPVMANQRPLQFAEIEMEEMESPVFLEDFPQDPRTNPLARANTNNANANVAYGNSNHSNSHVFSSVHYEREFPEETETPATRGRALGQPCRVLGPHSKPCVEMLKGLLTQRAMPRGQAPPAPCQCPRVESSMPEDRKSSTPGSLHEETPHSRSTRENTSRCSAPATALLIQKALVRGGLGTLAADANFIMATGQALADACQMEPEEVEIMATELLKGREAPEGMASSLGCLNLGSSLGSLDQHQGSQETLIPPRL
Nature of the data set: dihydropyridine ([3H]PN200-110) binding to RCMH cells.

receptors for α-bungarotoxin, sequence (P02708 21-457 limits assumed): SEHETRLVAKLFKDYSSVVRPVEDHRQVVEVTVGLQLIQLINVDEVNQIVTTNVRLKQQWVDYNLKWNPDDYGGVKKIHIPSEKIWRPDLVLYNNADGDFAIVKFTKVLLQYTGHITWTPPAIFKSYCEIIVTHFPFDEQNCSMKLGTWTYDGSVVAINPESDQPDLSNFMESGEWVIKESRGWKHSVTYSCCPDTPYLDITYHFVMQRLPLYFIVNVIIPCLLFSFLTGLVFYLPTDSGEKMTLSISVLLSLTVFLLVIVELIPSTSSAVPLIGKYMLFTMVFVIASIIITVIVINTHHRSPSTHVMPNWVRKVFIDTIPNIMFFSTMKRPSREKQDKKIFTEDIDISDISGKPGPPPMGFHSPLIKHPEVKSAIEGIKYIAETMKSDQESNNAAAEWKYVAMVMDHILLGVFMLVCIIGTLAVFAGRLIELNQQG
receptors for α-bungarotoxin, sequence (P07510 23-517 limits assumed): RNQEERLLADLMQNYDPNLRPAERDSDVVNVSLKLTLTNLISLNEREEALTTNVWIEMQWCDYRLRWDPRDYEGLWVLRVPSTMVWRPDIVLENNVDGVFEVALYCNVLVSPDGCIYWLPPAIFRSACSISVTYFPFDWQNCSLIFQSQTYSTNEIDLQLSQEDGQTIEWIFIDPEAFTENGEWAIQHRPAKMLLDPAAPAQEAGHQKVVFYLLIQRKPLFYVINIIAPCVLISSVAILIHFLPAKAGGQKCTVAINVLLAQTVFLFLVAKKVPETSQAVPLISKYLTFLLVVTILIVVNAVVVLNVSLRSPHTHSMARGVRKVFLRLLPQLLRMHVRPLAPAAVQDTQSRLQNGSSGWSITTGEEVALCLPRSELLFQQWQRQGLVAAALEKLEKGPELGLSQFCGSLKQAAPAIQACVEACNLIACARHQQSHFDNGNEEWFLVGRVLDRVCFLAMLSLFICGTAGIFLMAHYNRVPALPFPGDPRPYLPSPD
receptors for α-bungarotoxin, sequence (Q07001 22-517 limits assumed): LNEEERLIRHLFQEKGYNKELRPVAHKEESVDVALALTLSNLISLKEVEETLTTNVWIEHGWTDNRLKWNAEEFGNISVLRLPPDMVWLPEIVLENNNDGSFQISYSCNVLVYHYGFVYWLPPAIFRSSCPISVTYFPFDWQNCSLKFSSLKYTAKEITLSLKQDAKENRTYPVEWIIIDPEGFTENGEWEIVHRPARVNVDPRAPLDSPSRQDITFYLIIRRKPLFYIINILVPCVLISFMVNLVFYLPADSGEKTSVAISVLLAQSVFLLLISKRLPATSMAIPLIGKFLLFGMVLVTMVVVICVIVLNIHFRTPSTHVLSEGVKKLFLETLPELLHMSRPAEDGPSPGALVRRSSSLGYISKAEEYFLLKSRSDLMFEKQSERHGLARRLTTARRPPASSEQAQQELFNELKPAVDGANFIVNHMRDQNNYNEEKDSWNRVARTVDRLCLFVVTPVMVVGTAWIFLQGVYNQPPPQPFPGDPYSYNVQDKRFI

Regarding `[Mn+2]` [manganese], in the data set on RCSN-3 cells [1], the “mitochondrial membrane potential (JC-1 fluorescence)” value (from here on “mitochondrial membrane potential”) is recorded as “decrease in membrane potential”; the “ratio of emission between JC-1 and J monomer, normalized to basal fluorescence” value (“ratio … normalized to basal fluorescence” for short) is on record as “significant differences from controls”.

In [2], α-bungarotoxin returned a Bmax of 0.7 pmol/mg protein and a Kd of 1.5 nM.

As to `N[C@@H](CCC(=O)O)C(=O)O` [glutamate], in the data set on RCSN cells, the “cells responding with increases in Ca2+” value is given as “up to 40%”.

In the case of `N[C@@H](Cc1ccc(O)c(O)c1)C(=O)O` [L-DOPA, levodopa], the “melanin, mean” value in the data set on RCSN-3 cells [3] (Glass) is 0.03305; in the data set with RCSN-3 cells [3] (Plastic) it was 0.04045. For the same molecule, the entries for the “melanin, Average” value with RCSN-3 cells [3] (glass dishes) and with RCSN-3 cells [3] (plastic dishes) were 0.033 and 0.040, respectively.

Take `C[n+]1ccc(-c2ccccc2)cc1` [MPP+, 1-methyl-4-phenylpyridinium]: in the data set with RCSN-3 cells [4], the “DNA fragmentation (TUNEL)” value is listed as “fragmentation of DNA”. In the data set with RCSN-3 cells [1], the “mitochondrial membrane potential” value is given as “affects mitochondrial function”; the “ratio … normalized to basal fluorescence” value is “significant differences from controls”.

As to `NCCc1ccc(O)c(O)c1` [dopamine], in the data set on RCSN-3 cells [1], the “mitochondrial membrane potential” value is on record as “decrease in membrane potential”; the “ratio … normalized to basal fluorescence” value is “significant differences from controls”.

For `COC(=O)C1=C(C)NC(C)=C([N+](=O)[O-])C1c1ccccc1C(F)(F)F` (centres unmarked) [BAYK-8644], the “45Ca2+ influx induced by calcium channel agonist” value with RCVC cells is reported as “equivalent influx”.

In the case of `CN1CC=C(c2ccccc2)CC1` [MPTP, 1-methyl-4-phenyl-1,2,3,6-tetrahydropyridine], the “production of MPP+ from MPTP” value in data set [5] is “no production of MPP^+”.

Regarding `CCOC(=O)C1=C(C)NC2=C(C(=O)OC2)C1c1ccccc1OC(F)F` (centres unmarked) [CGP-28392], in the data set on RCVC cells, the “45Ca2+ influx induced by calcium channel agonist” value is on record as “equivalent influx”.

With “[^3H]ethylenediamine-tetrodotoxin [[^3H]en-TTX]”, in data set [6], the Kd was determined as 1.1 nM and the “maximal binding (Bmax)” value turned out to be 173 fmol/mg protein.

Regarding `CCOC(=O)C1=C(C)NC(C)=C(C(=O)OC)C1c1cccc([N+](=O)[O-])c1` (centres unmarked) [^3H-nitrendipine, nitrendipine], the Kd in [7] was found to be 0.7 nM.

On to `NC1=N[C@H](O)[C@H]2[C@H]3O[C@]4(O)O[C@@H]([C@@H](O)[C@@]2(N1)[C@@H]4O)[C@]3(O)CO` [tetrodotoxin], for which the IC50 in the data set with UCHCC1 cells turned out to be 0.9 nM.

In [8], `COC(=O)C1=C(C)NC(C)=C(C(=O)OC(C)C)C1c1cccc2nonc12` (centres unmarked) [[^3H]PN200-110] yielded a Bmax of 0.3 pmol/mg protein and a Kd of 0.5 nM.
